One data set deals with MDA-N. The data set can be described thus: NCI in vitro tumor cell line panel, LC50, breast cancer. The class given is cell-based, human. An excerpt: (§1) Discodermolide was additionally evaluated for its anti-proliferative effects utilizing the National Cancer Institute's in vitro tumor cell line panel. The results of these analyses are shown in the mean graphs presented as FIGS. 1A-1K. The data are presented using known and accepted measurements of "Growth Inhibition-50" (GI50), where growth of 50% of the cells is inhibited; "Total Growth Inhibition" (TGI), where growth of all cells is inhibited, i.e., cytostasis; and "Lethal Concentration-50" (LC50), where 50% of the cells are killed.

The test system of the next data set is MDA-MB-435. Described as above. Format: cell-based, human.
Description: as §1

For a further data set, the system named is NCI-H23. As to the kind of experiment: NCI in vitro tumor cell line panel, LC50, non-small cell lung cancer. The class given is cell-based. To be noted: human non-small cell lung cancer (NCI-H23).
Description: as §1

Data set [1] in a line: Constitutive proliferation of human non-lymphoid normal (foreskin) fibroblasts. To be noted: human, foreskin fibroblasts.
The subject of a further data set is Normal Fibroblast. The description is as above.
Another data set concerns HCC-2998. As to the kind of experiment: NCI in vitro tumor cell line panel, LC50, colon cancer. The class given is cell-based. The conditions noted are these: human colon cancer (HCC-2998).
Description: as §1

Another data set has as its system COLO 205. The description is as above. To be noted: human colon cancer (COLO 205). The class given is cell-based.
Description: as §1

Data set [2] has as its system GI-101A human breast cells. As to the kind of experiment: Cell cycle analysis of GI-101A human breast cells. The class given is cell-based. The conditions noted are these: 24 hours. The protocol: Cell cycle studies were initiated in order to pinpoint a specific phase within the cell cycle in which discodermolide was exerting its antiproliferative effect. GI-101A human breast and A549 human lung cells were used as cell cycle targets to compare the effects of discodermolide and taxol on perturbation of the cell cycle. Cell cycle analyses were performed as follows: GI-101A and A549 cells were incubated at 37° C. in 10% CO2 in air in the presence or absence of varying concentrations of discodermolide or taxol (purchased from Molecular Probes, Eugene, Oreg.) for 48 hours. Cells were harvested, fixed in ethanol, and stained with 0.5 mg/ml of propidium iodide (P.I.) together with 0.1 mg/ml of RNase A. This procedure permeabilizes live cells and allows entry of P.I. to stain DNA. Stained preparations were analyzed on a Coulter EPICS ELITE with 488 nm excitation with the dead cells excluded by back-gating of P.I. preparations without detergent on forward and side scatter histograms. Fluorescence measurements and resulting DNA histograms were collected from at least 5,000 P.I. stained cells at an emission wavelength of 690 nm. Raw histogram data were further analyzed using a cell cycle analysis program (Multicycle, Phoenix Flow Systems).
Approximately 56% of the control cells comprise the G1 phase of the cell cycle, and 30% comprise the S phase. Only approximately 14% of cells are demonstrable in the G2 /M phase in asynchronous cultures at any one time mainly due to their high proliferative rate (FIG. 2A). At 24 hours post culture initiation with 100 ng/ml of discodermolide, the percentage of cells in G1 phase decreased to 22%. […] The percentage of cells in G1 decreased from 56% in the control to 27% in taxol-treated cultures.

In a further data set the test system is SF 295. The data set can be described thus: NCI in vitro tumor cell line panel, LC50, CNS cancer. Format: cell-based, human.
Description: as §1

A further data set deals with SF 539. The description is as above. Format: cell-based, human.
Description: as §1

Where only a bound is given, the exact number is not on record here.

`C=C/C=C\C(C)C(OC(N)=O)C(C)C(O)C(C)C/C(C)=C\C(C)C(O)C(C)/C=C\C(O)CC1OC(=O)C(C)C(O)C1C` (single isomer, unassigned) [discodermolide]: the “LC50 (in words)” value in the data set with MDA-N, with MDA-MB-435, in the data set with NCI-H23, in the data set on HCC-2998, with COLO 205 and in the data set on SF 295 was “particularly effective” throughout. Further, in the data set with SF 539, the “LC50 (in words)” value is on record as “particularly effective”. In [1], this compound returned a CC50 of over 3000 nM. Half-maximal inhibition with Normal Fibroblast (Homo sapiens, Fibroblast) (IC50) required 15 nM. Also, the “viable cell recovery (toxicity)” value with Normal Fibroblast (human foreskin fibroblast, concentrations up to 3.0 μM) was “not affected”. In addition, in data set [2] (GI-101A), the “effect on cell cycle progression” value was “block at G2 /M phase of the cell cycle”. Also, the “percentage of cells in G2 /M” value in data set [2] (discodermolide 100 ng/ml, control 14%) worked out at 38%. The “percentage of S phase cells” value in data set [2] (discodermolide 100 ng/ml, control 30%) was found to be 41%. Moreover, in data set [2] (discodermolide 100 ng/ml, control 56%), the “percentage of cells in G1 phase” value is listed as 22%.

The IC50 is the midpoint of a concentration-inhibition curve. Lower therefore signals greater potency.

(Values after patent US5840750A, “Discodermolide compounds” (priority 1996, dated 1998).)
